Experimental data from article PMC10094921, “A Lipidated Single-B-Chain Derivative of Relaxin Exhibits Improved In Vitro Serum Stability without Altering Activity” (International Journal of Molecular Sciences, 2023).
Starred links: 1 amine or outer side, 2 acyl side, 3 side chain; linkers in the order of their positions; H or OH if unused. Non-standard residues stand in square brackets, D forms with d. Residues, ends and D or L forms follow the SMILES beside them. Groups on a side chain read outwards from the residue. *: point of attachment. PEG12 = NCCOCCOCCOCCOCCOCCOCCOCCOCCOCCOCCOCCOCCC(=O)O; γGlu = O=C(O)[C@H](CCC(=O)[*:2])N[*:1]; PEG6 = NCCOCCOCCOCCOCCOCCOCCC(=O)O; Palmitoyl = CCCCCCCCCCCCCCCC(=O)*

What was measured:
[1] = test system: BJ3 human dermal myofibroblasts; assay: Myofibroblast differentiation in vitro (α-SMA expression, Western blot); format: cell-based
Description: 3.8. Determination of the Effects of Lipidated (L)-B7-33 on Myofibroblast Differentiation In Vitro
To determine if the lipidation of B7-33 prolonged its ability to suppress myofibroblast differentiation in vitro, the effects of the native B7-33 peptide vs. lipidated (L)-B7-33 were compared in BJ3 cells, a human dermal fibroblast cell line. BJ3 fibroblasts were used between passages 15–18 and cultured as described before. […] BJ3 cells were plated in 12-well plates at a density of 1–1.25 × 10^5 cells per well and were then either left untreated or stimulated with transforming growth factor (TGF)-β1 (T; 2 ng/mL) alone (to promote myofibroblast differentiation) or with T + B7-33 (100 ng/mL) or T + L-B7-33 (100 ng/mL) for a 14-day period, in media that was left unchanged over this time period. The cells from duplicate wells per treatment group were isolated from plates at 3-, 5-, 7-, 10- and 14-days post-T ± peptide treatment and extracted for protein using the RIPA lysis buffer (ThermoFisher Scientific; Scoresby, Victoria, Australia). These experiments were performed six independent times.
Half the cell protein (in 10 μL of RIPA buffer) from each sample (that was fully reconstituted in 20 μL of RIPA buffer) was loaded and electrophoresed in separate mini-protean 4–15% precast gels, and analyzed by Western blotting using a primary monoclonal antibody to α-SMA (42 kDa; M0851; […]; Agilent Technologies, Santa Clara, CA, USA). The equivalent loading of protein between samples was confirmed using a rabbit monoclonal glyceraldehyde 3-phosphate dehydrogenase (GAPDH) housekeeping antibody (37 kDa; 2118; 1:1000 dilution; Cell Signaling Technology; Danvers, MA, USA). Each membrane was then subjected to appropriate anti-mouse (7076) or anti-rabbit (7074) horseradish peroxidase-conjugated secondary antibodies (both at a 1:2000 dilution; Cell Signaling Technologies), before proteins were detected using the Clarity Western ECL substrate detection kit and quantified by densitometry with a ChemiDoc MP Imaging System and Image Lab v.6.0 software (both from Bio-Rad Laboratories, Hercules, CA, USA).The density of α-SMA from each sample was corrected for GAPDH protein levels and then expressed relative to the ratio that was measured from the unstimulated control group, which was expressed as 1 in each case. Representative blots of α-SMA and GAPDH were also chosen for presentation in each case.

[2] = In vitro serum stability assay; format: in vitro ADME, human; details: 37 °C
Description: 3.7. In Vitro Serum Stability Assay
A total of 400 µL of human serum was taken, and 200 µg peptide dissolved in 100 µL of water was added to human serum at 37 °C. A total of 80 µL of samples was removed at various time points (0 min, 30 min, 60 min, 120 min, 240 min, and 480 min), and 160 µL of acetonitrile was added to precipitate plasma proteins. The solution was then centrifuged at 12,000 rpm for 15 min at 4 °C. A total of 200 µL of supernatant was taken out and mixed with 240 µL of milli-Q water, and each sample was analyzed by RP-HPLC (2 × 80 μL injection), by measuring the area under the peak at the appropriate retention time compared to the peak area of the peptide at time zero minute (100%). Data analysis (n = 3, duplicate) was performed using Prism Version 8.0.2, a non-linear-fit one-phase decay model.

[3] = target: T1, 7BP protein (RXFP1 extracellular domain attached with a single TM domain) (Homo sapiens, UniProt Q9HBX9); assay: Eu-H2 relaxin competition binding in HEK-7BP cells, BSA free; details: HEK-293T cells stably expressing 7BP, BSA excluded from buffer, mean ± SEM, n in brackets, one-site fit, read-out: HEK-7BP Binding B.S.A. Free Eu-H2 pKi (n) (converted)
T1 construct: RXFP1 extracellular domain attached with a single TM domain instead of the native 7 TM domain; single transmembrane domain replacing the native 7 TM domain (heterologous); expressed in transfected cells; host or cells: HEK-293T cells stably expressing 7BP (HEK-7BP)
T1 sequence (Q9HBX9 1-409 limits assumed): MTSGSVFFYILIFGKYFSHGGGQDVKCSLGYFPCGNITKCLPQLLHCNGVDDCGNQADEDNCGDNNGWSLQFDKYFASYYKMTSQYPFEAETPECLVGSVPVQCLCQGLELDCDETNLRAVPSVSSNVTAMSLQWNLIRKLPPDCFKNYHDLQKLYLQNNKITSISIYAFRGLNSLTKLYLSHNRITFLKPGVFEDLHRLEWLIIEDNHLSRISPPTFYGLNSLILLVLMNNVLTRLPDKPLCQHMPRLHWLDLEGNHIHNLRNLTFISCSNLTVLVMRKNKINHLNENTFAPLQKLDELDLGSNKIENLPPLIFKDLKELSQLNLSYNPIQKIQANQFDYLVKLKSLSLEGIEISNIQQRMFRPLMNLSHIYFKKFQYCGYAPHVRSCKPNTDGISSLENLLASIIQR
Description: 3.6. HEK-7BP Binding Assays
HEK-293T cells stably expressing the 7BP protein (HEK-7BP; RXFP1 extracellular domain attached with a single TM domain instead of the native 7 TM domain [30]) were plated in 96-well plates. The medium was aspirated off, and the cells were washed with phosphate-buffered saline (PBS) before competition binding assays were performed with Eu-H2 Relaxin (RXFP1 ligand), as previously described, with the only difference being that BSA was excluded from the binding assay buffer. Competition binding curves for each peptide were performed in triplicate, and each experiment was performed independently at least three times. Fluorescent measurements were carried out on a BMG POLARstar plate reader (BMG Labtech, Melbourne, Australia). Pooled data are presented as mean ± SE of specific binding and are fitted using a one-site binding curve in GraphPad Prism version 8 (GraphPad Inc., San Diego, CA, USA). Statistical analyses were conducted using a one-way analysis of variance with uncorrected Fisher’s least significant difference (LSD) post-hoc analysis in GraphPad Prism version 8.

## CCCCCCCCCCCCCCCC(=O)N[C@@H](CCC(=O)NCCCC[C@H](NC(C)=O)C(=O)NCCOCCOCCOCCOCCOCCOCCOCCOCCOCCOCCOCCOCCC(=O)N[C@H](C(=O)N[C@H](C(=O)N[C@@H](CCCCN)C(=O)N[C@@H](CC(C)C)C(=O)N[C@@H](CO)C(=O)NCC(=O)N[C@@H](CCCNC(=N)N)C(=O)N[C@@H](CCC(=O)O)C(=O)N[C@@H](CC(C)C)C(=O)N[C@H](C(=O)N[C@@H](CCCNC(=N)N)C(=O)N[C@@H](C)C(=O)N[C@@H](CCC(N)=O)C(=O)N[C@H](C(=O)N[C@@H](C)C(=O)N[C@H](C(=O)N[C@@H](CO)C(=O)NCC(=O)N[C@@H](CCSC)C(=O)N[C@@H](CO)C(=O)N[C@H](C(=O)N[C@@H](Cc1c[nH]c2ccccc12)C(=O)N[C@@H](CO)C(=O)N[C@@H](CCCCN)C(=O)N[C@@H](CCCNC(=N)N)C(=O)N[C@@H](CO)C(=O)N[C@@H](CC(C)C)C(N)=O)[C@@H](C)O)[C@@H](C)CC)[C@@H](C)CC)C(C)C)[C@@H](C)CC)C(C)C)C(=O)O [Ac K(PalmGlu)-PEG12-B7-33] (Ac-K([γGlu-Palmitoyl])[PEG12]VIKLSGRELVRAQIAISGMSTWSKRSL-NH2)
[1]; peptide 100 ng/mL + T 2 ng/mL, after 7–14 days of culture
  α-SMA expression levels versus T-alone-stimulated cells, in words: fully returned to those measured for T-alone-stimulated cells
[1]; peptide 100 ng/mL + T 2 ng/mL, after 5 days, media unchanged, 0.5% FCS
  α-SMA expression level relative to T-alone-stimulated cells: ~ 70%
[1]; peptide 100 ng/mL co-administered with T (2 ng/mL), after 72 h of culture, 0.5% FCS, n = 6 in duplicate
  suppression of TGF-α-induced increase in α-SMA expression: almost fully suppressed
[2]; human serum 400 µL + 200 µg peptide in 100 µL water, samples 0-480 min, acetonitrile precipitation, RP-HPLC peak area vs time zero, one-phase decay fit, n = 3, duplicate
  half-life at 400 µg/mL: 1 h
[2]; human serum, RP-HPLC, n = 3 independent experiments
  in vitro serum stability, in words: stable in serum over time

## CCCCCCCCCCCCCCCC(=O)NCCCC[C@H](NC(=O)[C@@H](NC(=O)[C@@H](N)C(C)C)[C@@H](C)CC)C(=O)N[C@@H](CC(C)C)C(=O)N[C@@H](CO)C(=O)NCC(=O)N[C@@H](CCCNC(=N)N)C(=O)N[C@@H](CCC(=O)O)C(=O)N[C@@H](CC(C)C)C(=O)N[C@H](C(=O)N[C@@H](CCCNC(=N)N)C(=O)N[C@@H](C)C(=O)N[C@@H](CCC(N)=O)C(=O)N[C@H](C(=O)N[C@@H](C)C(=O)N[C@H](C(=O)N[C@@H](CO)C(=O)NCC(=O)N[C@@H](CCSC)C(=O)N[C@@H](CO)C(=O)N[C@H](C(=O)N[C@@H](Cc1c[nH]c2ccccc12)C(=O)N[C@@H](CO)C(=O)N[C@@H](CCCCN)C(=O)N[C@@H](CCCNC(=N)N)C(=O)N[C@@H](CO)C(=O)N[C@@H](CC(C)C)C(N)=O)[C@@H](C)O)[C@@H](C)CC)[C@@H](C)CC)C(C)C [B7-33_9K(Palm)] (H-VIK(Palmitoyl)LSGRELVRAQIAISGMSTWSKRSL-NH2; N-terminus assumed)
[3]
  Ki: > 10 µM

## CCCCCCCCCCCCCCCC(=O)NCCOCCOCCOCCOCCOCCOCCC(=O)N[C@H](C(=O)N[C@H](C(=O)N[C@@H](CCCCN)C(=O)N[C@@H](CC(C)C)C(=O)N[C@@H](CO)C(=O)NCC(=O)N[C@@H](CCCNC(=N)N)C(=O)N[C@@H](CCC(=O)O)C(=O)N[C@@H](CC(C)C)C(=O)N[C@H](C(=O)N[C@@H](CCCNC(=N)N)C(=O)N[C@@H](C)C(=O)N[C@@H](CCC(N)=O)C(=O)N[C@H](C(=O)N[C@@H](C)C(=O)N[C@H](C(=O)N[C@@H](CO)C(=O)NCC(=O)N[C@@H](CCSC)C(=O)N[C@@H](CO)C(=O)N[C@H](C(=O)N[C@@H](Cc1c[nH]c2ccccc12)C(=O)N[C@@H](CO)C(=O)N[C@@H](CCCCN)C(=O)N[C@@H](CCCNC(=N)N)C(=O)N[C@@H](CO)C(=O)N[C@@H](CC(C)C)C(N)=O)[C@@H](C)O)[C@@H](C)CC)[C@@H](C)CC)C(C)C)[C@@H](C)CC)C(C)C [Palmitic acid-PEG6-B7-33] ({Palmitoyl-PEG6}-VIKLSGRELVRAQIAISGMSTWSKRSL-NH2)
[3]
  Ki: > 10 µM

## CCCCCCCCCCCCCCCC(=O)NCCCC[C@H](NC(=O)[C@H](CCC(=O)O)NC(=O)[C@H](Cc1ccc(O)cc1)NC(=O)[C@@H](N)CCC(=O)O)C(=O)N[C@@H](CCC(=O)O)C(=O)N[C@@H](Cc1ccc(O)cc1)C(=O)N[C@@H](CCC(=O)O)C(=O)N[C@H](C(=O)N[C@H](C(=O)N[C@@H](CCCCN)C(=O)N[C@@H](CC(C)C)C(=O)N[C@@H](CO)C(=O)NCC(=O)N[C@@H](CCCNC(=N)N)C(=O)N[C@@H](CCC(=O)O)C(=O)N[C@@H](CC(C)C)C(=O)N[C@H](C(=O)N[C@@H](CCCNC(=N)N)C(=O)N[C@@H](C)C(=O)N[C@@H](CCC(N)=O)C(=O)N[C@H](C(=O)N[C@@H](C)C(=O)N[C@H](C(=O)N[C@@H](CO)C(=O)NCC(=O)N[C@@H](CCSC)C(=O)N[C@@H](CO)C(=O)N[C@H](C(=O)N[C@@H](Cc1c[nH]c2ccccc12)C(=O)N[C@@H](CO)C(=O)N[C@@H](CCCCN)C(=O)N[C@@H](CCCNC(=N)N)C(=O)N[C@@H](CO)C(=O)N[C@@H](CC(C)C)C(N)=O)[C@@H](C)O)[C@@H](C)CC)[C@@H](C)CC)C(C)C)[C@@H](C)CC)C(C)C [Tag-B7-33] (H-EYEK(Palmitoyl)EYEVIKLSGRELVRAQIAISGMSTWSKRSL-NH2)
[3]
  Ki: > 10 µM

## CCCCCCCCCCCCCCCC(=O)NCCCC[C@H](NC(=O)[C@H](CCC(=O)O)NC(=O)[C@H](Cc1ccc(O)cc1)NC(=O)[C@@H](N)CCC(=O)O)C(=O)N[C@@H](CCC(=O)O)C(=O)N[C@@H](Cc1ccc(O)cc1)C(=O)N[C@@H](CCC(=O)O)C(=O)NCCOCCOCCOCCOCCC(=O)N[C@H](C(=O)N[C@H](C(=O)N[C@@H](CCCCN)C(=O)N[C@@H](CC(C)C)C(=O)N[C@@H](CO)C(=O)NCC(=O)N[C@@H](CCCNC(=N)N)C(=O)N[C@@H](CCC(=O)O)C(=O)N[C@@H](CC(C)C)C(=O)N[C@H](C(=O)N[C@@H](CCCNC(=N)N)C(=O)N[C@@H](C)C(=O)N[C@@H](CCC(N)=O)C(=O)N[C@H](C(=O)N[C@@H](C)C(=O)N[C@H](C(=O)N[C@@H](CO)C(=O)NCC(=O)N[C@@H](CCSC)C(=O)N[C@@H](CO)C(=O)N[C@H](C(=O)N[C@@H](Cc1c[nH]c2ccccc12)C(=O)N[C@@H](CO)C(=O)N[C@@H](CCCCN)C(=O)N[C@@H](CCCNC(=N)N)C(=O)N[C@@H](CO)C(=O)N[C@@H](CC(C)C)C(N)=O)[C@@H](C)O)[C@@H](C)CC)[C@@H](C)CC)C(C)C)[C@@H](C)CC)C(C)C [Tag-PEG4-B7-33]
[3]
  Ki: > 10 µM
